Our source for the Body weight gain/grams values is patent US6365628B1 (Thia Medica AS, priority 1998, dated 2002).

For this assay, the system named is male Wistar rats. Briefly: Body weight of male Wistar rats after 12 weeks of treatment (Example 6). As to conditions: oral TTA. Format: in vivo, rat. The method, then: 2 groups of 6 male Wistar Rats were randomly selected, and studied for weight development over a period of 12 week. The body weight of each Wistar rat was measured at the start of the experiment. All animals in both groups received individually the same amount of food (nutrition) during the experimental period of 12 weeks. All animals in one of the groups were orally administrated with the medicament comprising TTA. The other group was the control group (CMC). After the 12 week period the body weight of rats were measured again.

Consider Tetradecylthioacetic acid [TTA], for which the Body weight gain/grams stood at 234 ± 20 grams.
